Experiments:
[1] = tested on: blackgrass; assay: Test D postemergence; assay type: in vivo, Alopecurus myosuroides; details: scale 0 to 100
How it was run: (§1)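 Visual 0–100 control ratings at 14–21 days in a controlled growth environment. Application preemergence onto silt loam or postemergence onto 2–18 cm seedlings, using a non-phytotoxic solvent formulation with surfactant.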

[2] = tested on: wheat, spring; assay: Test D preemergence; assay type: in vivo, Triticum aestivum; details: for Plant response rating, Wheat, Spring: Preemergence, scale 0 to 100
How it was run: as §1

[3] = tested on: wheat, winter; assay: Test D preemergence; assay type: in vivo, Triticum aestivum; details: for Plant response rating, Wheat, Winter: Preemergence, scale 0 to 100
How it was run: as §1

[4] = tested on: windgrass; assay: Test D preemergence; assay type: in vivo, Apera spica-venti; details: for Plant response rating, Windgrass: Preemergence, scale 0 to 100
How it was run: as §1

[5] = tested on: deadnettle; assay: Test D postemergence; assay type: in vivo, Lamium amplexicaule; details: scale 0 to 100
How it was run: as §1

[6] = tested on: speedwell; assay: Test D postemergence; assay type: in vivo, Veronica persica; details: scale 0 to 100
How it was run: as §1

[7] = tested on: speedwell; assay: Test D preemergence; assay type: in vivo, Veronica persica; details: for Plant response rating, Speedwell: Preemergence, scale 0 to 100
How it was run: as §1

[8] = tested on: buckwheat, wild; assay: Test D postemergence; assay type: in vivo, Polygonum convolvulus; details: scale 0 to 100
How it was run: as §1

[9] = tested on: kochia; assay: Test D postemergence; assay type: in vivo, Kochia scoparia; details: scale 0 to 100
How it was run: as §1

[10] = tested on: oilseed rape; assay: Test D preemergence; assay type: in vivo, Brassica napus; details: for Plant response rating, Oilseed Rape: Preemergence, scale 0 to 100
How it was run: as §1

[11] = tested on: barley, spring; assay: Test D postemergence; assay type: in vivo, Hordeum vulgare; details: scale 0 to 100
How it was run: as §1

[12] = tested on: barley, winter; assay: Test D postemergence; assay type: in vivo, Hordeum vulgare; details: scale 0 to 100
How it was run: as §1

[13] = tested on: bluegrass; assay: Test D preemergence; assay type: in vivo, Poa annua; details: for Plant response rating, Bluegrass: Preemergence, scale 0 to 100
How it was run: as §1

[14] = tested on: chamomile; assay: Test D preemergence; assay type: in vivo, Matricaria inodora; details: for Plant response rating, Chamomile: Preemergence, scale 0 to 100
How it was run: as §1

[15] = tested on: kochia; assay: Test D preemergence; assay type: in vivo, Kochia scoparia; details: for Plant response rating, Kochia: Preemergence, scale 0 to 100
How it was run: as §1

[16] = tested on: chamomile; assay: Test D postemergence; assay type: in vivo, Matricaria inodora; details: scale 0 to 100
How it was run: as §1

[17] = tested on: field violet; assay: Test D preemergence; assay type: in vivo, Viola arvensis; details: for Plant response rating, Field Violet: Preemergence, scale 0 to 100
How it was run: as §1

[18] = tested on: bromegrass, downy; assay: Test D postemergence; assay type: in vivo, Bromus tectorum; details: scale 0 to 100
How it was run: as §1

[19] = tested on: galium; assay: Test D preemergence; assay type: in vivo, Galium aparine; details: for Plant response rating, Galium: Preemergence, scale 0 to 100
Text: Seeds of plant species selected from bluegrass (annual bluegrass, Poa annua), blackgrass (Alopecurus myosuroides), canarygrass (littleseed canarygrass, Phalaris minor), chickweed (common chickweed, Stellaria media), galium (catchweed bedstraw, Galium aparine), bromegrass, downy (downy bromegrass, Bromus tectorum), field poppy (Papaver rhoeas), field violet (Viola arvensis), foxtail, green (green foxtail, Setaria viridis), deadnettle (henbit deadnettle, Lamium amplexicaule), ryegrass, Italian (Italian ryegrass, Lolium multiflorum), kochia (Kochia scoparia), lambsquarters (Chenopodium album), oilseed rape (Brassica napus), pigweed (redroot pigweed, Amaranthus retroflexus), chamomile (scentless chamomile, Matricaria inodora), speedwell (bird's-eye speedwell, Veronica persica), barley, spring (spring barley, Hordeum vulgare), wheat, spring (spring wheat, Triticum aestivum), buckwheat, wild (wild buckwheat, Polygonum convolvulus), mustard, wild (wild mustard, Sinapis arvensis), oat, wild (wild oat, Avena fatua), radish, wild (wild radish, Raphanus raphanistrum), windgrass (Apera spica-venti), Russian thistle (Salsola kali), barley, winter (winter barley, Hordeum vulgare), and wheat, winter (winter wheat, Triticum aestivum) were planted into a silt loam soil and treated preemergence with test chemicals formulated in a non-phytotoxic solvent mixture which included a surfactant.
At the same time, these species were planted in pots containing Redi-Earth® planting medium (Scotts Company, 14111 Scottslawn Road, Marysville, Ohio 43041) comprising spaghnum peat moss, vermiculite, wetting agent and starter nutrients and treated with postemergence applications of the test chemicals formulated in the same manner. Plants ranged in height from 2 to 18 cm (1- to 4-leaf stage). Treated plants and controls were maintained in a controlled growth environment for 14 to 21 days after which time all species were compared to controls and visually evaluated. Plant response ratings, summarized in Table D, are based on a scale of 0 to 100 where 0 is no effect and 100 is complete control. A dash (-) response means no test result.

[20] = tested on: field poppy; assay: Test D preemergence; assay type: in vivo, Papaver rhoeas; details: for Plant response rating, Field Poppy: Preemergence, scale 0 to 100
How it was run: as §1

[21] = 16 g ai/ha, taken as preemergence

CCc1cc(C(=O)NC2CC2)nn1Cc1ccnc(C(F)(F)F)c1 [Compound 76]
Plant response rating, Blackgrass ([1]; Postemergence, 16 g ai/ha): 5
Blackgrass plant response rating ([1]; Postemergence, 31 g ai/ha): 0
Blackgrass plant response rating ([1]; Postemergence, 125 g ai/ha): 10
Blackgrass plant response rating ([1]; Postemergence, 250 g ai/ha): 10
Blackgrass plant response rating ([1]; postemergence, 62 g ai/ha): 5
Plant response rating (scale 0 to 100), Wheat, Spring [2, 21]: 0
Plant response rating, Wheat, Spring ([2]; 31 g ai/ha): 0
Plant response rating, Wheat, Spring ([2]; 62 g ai/ha): 10
Plant response rating, Wheat, Spring ([2]; 125 g ai/ha): 60
Plant response rating, Wheat, Spring ([2]; 250 g ai/ha): 75
Plant response rating (scale 0 to 100), Wheat, Winter [3, 21]: 0
Plant response rating, Wheat, Winter ([3]; 31 g ai/ha): 0
Plant response rating, Wheat, Winter ([3]; 62 g ai/ha): 5
Plant response rating, Wheat, Winter ([3]; 125 g ai/ha): 40
Plant response rating, Wheat, Winter ([3]; 250 g ai/ha): 60
Plant response rating (scale 0 to 100), Windgrass [4, 21]: 5
Plant response rating, Windgrass ([4]; 31 g ai/ha): 15
Plant response rating, Windgrass ([4]; 62 g ai/ha): 65
Plant response rating, Windgrass ([4]; 125 g ai/ha): 80
Plant response rating, Windgrass ([4]; 250 g ai/ha): 100
Plant response rating, Deadnettle ([5]; Postemergence, 16 g ai/ha): 15
Deadnettle plant response rating ([5]; Postemergence, 31 g ai/ha): 25
Deadnettle plant response rating ([5]; Postemergence, 125 g ai/ha): 50
Deadnettle plant response rating ([5]; Postemergence, 250 g ai/ha): 70
Deadnettle plant response rating ([5]; postemergence, 62 g ai/ha): 40
Plant response rating, Speedwell ([6]; Postemergence, 16 g ai/ha): 65
Speedwell plant response rating ([6]; Postemergence, 31 g ai/ha): 60
Speedwell plant response rating ([6]; Postemergence, 125 g ai/ha): 75
Speedwell plant response rating ([6]; Postemergence, 250 g ai/ha): 100
Speedwell plant response rating ([6]; postemergence, 62 g ai/ha): 75
Plant response rating (scale 0 to 100), Speedwell [7, 21]: 100
Plant response rating, Speedwell ([7]; 31 g ai/ha): 100
Plant response rating, Speedwell ([7]; 62 g ai/ha): 100
Plant response rating, Speedwell ([7]; 125 g ai/ha): 100
Plant response rating, Speedwell ([7]; 250 g ai/ha): 100
Plant response rating, Buckwheat, Wild ([8]; Postemergence, 16 g ai/ha): 50
Buckwheat, Wild plant response rating ([8]; Postemergence, 31 g ai/ha): 55
Buckwheat, Wild plant response rating ([8]; Postemergence, 125 g ai/ha): 60
Buckwheat, Wild plant response rating ([8]; Postemergence, 250 g ai/ha): 100
Buckwheat, Wild plant response rating ([8]; postemergence, 62 g ai/ha): 50
Plant response rating, Kochia ([9]; Postemergence, 16 g ai/ha): 25
Kochia plant response rating ([9]; Postemergence, 31 g ai/ha): 40
Kochia plant response rating ([9]; Postemergence, 125 g ai/ha): 60
Kochia plant response rating ([9]; Postemergence, 250 g ai/ha): 75
Kochia plant response rating ([9]; postemergence, 62 g ai/ha): 50
Plant response rating (scale 0 to 100), Oilseed Rape [10, 21]: 10
Plant response rating, Oilseed Rape ([10]; 31 g ai/ha): 30
Plant response rating, Oilseed Rape ([10]; 62 g ai/ha): 65
Plant response rating, Oilseed Rape ([10]; 125 g ai/ha): 90
Plant response rating, Oilseed Rape ([10]; 250 g ai/ha): 100
Barley, Spring plant response rating ([11]; Postemergence, 16 g ai/ha): 0
Barley, Spring plant response rating ([11]; Postemergence, 31 g ai/ha): 0
Barley, Spring plant response rating ([11]; Postemergence, 125 g ai/ha): 10
Barley, Spring plant response rating ([11]; Postemergence, 250 g ai/ha): 15
Barley, Spring plant response rating ([11]; postemergence, 62 g ai/ha): 5
Barley, Winter plant response rating ([12]; Postemergence, 16 g ai/ha): 10
Barley, Winter plant response rating ([12]; Postemergence, 31 g ai/ha): 10
Barley, Winter plant response rating ([12]; Postemergence, 125 g ai/ha): 15
Barley, Winter plant response rating ([12]; Postemergence, 250 g ai/ha): 20
Barley, Winter plant response rating ([12]; postemergence, 62 g ai/ha): 10
Plant response rating (scale 0 to 100), Bluegrass [13, 21]: 0
Plant response rating, Bluegrass ([13]; 31 g ai/ha): 0
Plant response rating, Bluegrass ([13]; 62 g ai/ha): 5
Plant response rating, Bluegrass ([13]; 125 g ai/ha): 55
Plant response rating, Bluegrass ([13]; 250 g ai/ha): 100
Plant response rating (scale 0 to 100), Chamomile [14, 21]: 50
Plant response rating, Chamomile ([14]; 31 g ai/ha): 80
Plant response rating, Chamomile ([14]; 62 g ai/ha): 95
Plant response rating, Chamomile ([14]; 125 g ai/ha): 100
Plant response rating, Chamomile ([14]; 250 g ai/ha): 100
Plant response rating (scale 0 to 100), Kochia [15, 21]: 20
Plant response rating, Kochia ([15]; 31 g ai/ha): 100
Plant response rating, Kochia ([15]; 62 g ai/ha): 100
Plant response rating, Kochia ([15]; 125 g ai/ha): 100
Plant response rating, Kochia ([15]; 250 g ai/ha): 100
Plant response rating, Chamomile ([16]; Postemergence, 16 g ai/ha): 10
Chamomile plant response rating ([16]; Postemergence, 31 g ai/ha): 25
Chamomile plant response rating ([16]; Postemergence, 125 g ai/ha): 50
Chamomile plant response rating ([16]; Postemergence, 250 g ai/ha): 55
Chamomile plant response rating ([16]; postemergence, 62 g ai/ha): 30
Plant response rating (scale 0 to 100), Field Violet [17, 21]: 60
Plant response rating, Field Violet ([17]; 31 g ai/ha): 95
Plant response rating, Field Violet ([17]; 62 g ai/ha): 100
Plant response rating, Field Violet ([17]; 125 g ai/ha): 100
Plant response rating, Field Violet ([17]; 250 g ai/ha): 100
Plant response rating, Bromegrass, Downy ([18]; Postemergence, 16 g ai/ha): 0
Bromegrass, Downy plant response rating ([18]; Postemergence, 31 g ai/ha): 0
Bromegrass, Downy plant response rating ([18]; Postemergence, 125 g ai/ha): 10
Bromegrass, Downy plant response rating ([18]; Postemergence, 250 g ai/ha): 15
Bromegrass, Downy plant response rating ([18]; postemergence, 62 g ai/ha): 5
Plant response rating (scale 0 to 100), Galium [19, 21]: 25
Plant response rating, Galium ([19]; 31 g ai/ha): 50
Plant response rating, Galium ([19]; 62 g ai/ha): 100
Plant response rating, Galium ([19]; 125 g ai/ha): 100
Plant response rating, Galium ([19]; 250 g ai/ha): 100
Plant response rating (scale 0 to 100), Field Poppy [20, 21]: 95
Plant response rating, Field Poppy ([20]; 31 g ai/ha): 100
Plant response rating, Field Poppy ([20]; 62 g ai/ha): 100
Plant response rating, Field Poppy ([20]; 125 g ai/ha): 100
Plant response rating, Field Poppy ([20]; 250 g ai/ha): 100

— patent US20150105252A1, “SUBSTITUTED PYRAZOLES AS HERBICIDES” (E I DU PONT DE NEMOURS AND COMPANY, priority 2013, published 2015)
